Results from patent US11446314B2, “Immunoablative therapies” (AVM Biotechnology LLC, priority 2018, dated 2022).
Entries after “also recorded” stand apart in the source; their conditions may differ.

Columns and labels:
RBC = settings: doses of about 24 mg/50 kg; cited from earlier work
germinal centers [1] = experiment: FITC-PNA staining of germinal centers in mouse spleen sections; format: in vivo; settings: for HED dose from which germinal centers are reduced: acute dose, about; for Germinal Center staining intensity in spleen: 48 hours before spleen harvest
Description: FIG. 2. […] A graph of column plots of average Germinal Center staining intensity measured using immunofluorescent staining of fresh thick spleen sections stained with FITC-PNA is shown. Immunofluorescent intensity was calculated using thresholding and MetaMorph Image Analysis. Columns are average plus SEM.
The spleens were removed, weighed wet, and then fixed in 10% formalin. Subsequently the spleens were sectioned via proprietary methods and then incubated with FITC-PNA at 4 degC for 24 hours, washed, placed on slides and immunofluorescent images were captured. Metamorph software was used to quantify the immunofluorescent signal.

[2] = tested on: CD4+, CD8+, Tregs and B cells; experiment: Preliminary dose escalation studies in naïve mouse and rat models; format: in vivo
lymphocytes [3] = experiment: Flow cytometry of blood cells in human patients before and 48 hours after oral 3 mg/kg dexamethasone base
Excerpt: FIG. 14. […] Each patient's pre-treatment values are connected to post-treatment values by a connecting line. CD4+ cells are also CD3+. CD8+ cells are also CD3+.
FIG. 15. […] Each patient's pre-treatment values are connected to post-treatment values by a connecting line. Tregs are identified by being CD3+CD4+CD25+FoxP3+. B lymphocytes are identified by being CD3−CD19+.
FIG. 16. […] Each patient's pre-treatment values are connected to post-treatment values by a connecting line. NK cells are identified by being CD3−CD16/56+. HSCs are identified by being CD34+CD38−.
(§1) Blood was drawn before drug treatment and 48 hours post-treatment for CBC analysis and flow cytometry to determine lymphocyte and other blood cell populations. Serum was analyzed for cytokine levels.

IL-2, IL-15, IL-6 = tested on: IL-2, IL-15, IL-6
Description: as §1

[4] = tested on: bone marrow mesenchymal stem cells; experiment: Horse sternal bone marrow MSC number and trilineage differentiation; format: in vivo; settings: horses, 6 mg/kg HED, one hour IV infusion, 48 hours
[5] = Double-blind controlled horse trial; format: in vivo; settings: horses, acute high dose, out to 70 days
[6] = Clinical chemistries in mice; format: in vivo, mouse
lymphocytes [7] = experiment: Lymphodepletion in C57B1 female mice; format: in vivo, mouse; settings: oral, HED 12, 15, 18 mg/kg tested
B lymphocytes = experiment: Treatment of patients with autoimmune diseases (Examples 5 and 9); format: in vivo, human; settings: patient with an autoimmune disease, acute high dose
Description: Acute high dose prednisone doses range from about 19 mg/kg to about 150 mg/kg, with doses between about 56 mg/kg and about 112 mg/kg being preferred, with a repeat (second) administration of this dose 24 hours later and an optional repeat (third) administration of this dose 48-72 hours after the initial dose.

[8] = tested on: peripheral blood lymphocytes
marginal zone = settings: rats IV or PO 20, 40, 80 mg/kg (HED 3.23, 6.45, 12.9 mg/kg), 48 hours
Description: Formalin-fixed spleens were cross-sectioned in 5 pieces, trimmed and embedded in paraffin, sectioned and stained with hematoxylin and eosin (H&E). Measurements of the periarteriolar lymphoid sheath (PAL) diameter and the width of the marginal zone (MZ) in areas of white pulp that had PAL with the greatest diameter were measured using an ocular micrometer.

germinal centers [9] = settings: rats IV or PO 20, 40, 80 mg/kg (HED 3.23, 6.45, 12.9 mg/kg), 48 hours
Description: Column plots of the area per spleen of BCL-6 staining of 5 micron fixed spleen sections as a measure of germinal center numbers given as average per section are shown.
Formalin-fixed spleens were cross-sectioned in 5 pieces, trimmed and embedded in paraffin, sectioned and stained with hematoxylin and eosin (H&E). Measurements of the periarteriolar lymphoid sheath (PAL) diameter and the width of the marginal zone (MZ) in areas of white pulp that had PAL with the greatest diameter were measured using an ocular micrometer. BCL-6 immunohistochemical staining in rat spleens was evaluated to determine GC area using automated image analysis methods.

[10] = tested on: peripheral blood T and B lymphocytes; settings: single oral 0.24 mg/kg dose; cited from earlier work
pemphigus = settings: 100 mgs by 2 hour IV infusion daily for 3 days, every 28 days until cure; cited from earlier work
spleen cellularity = settings: cited from earlier work
[11] = tested on: bone marrow mesenchymal stem cells; experiment: Human bone marrow MSC number by CFU-F; settings: oral 3 mg/kg dexamethasone base, 48 hours, vs 31 historical controls
hematopoietic stem cells = experiment: Live hematopoietic stem cells in naïve mice; settings: 48 hours, low or high doses vs placebo
[12] = pharmacodynamic (biologic); cited from earlier work
[13] = tested on: spleen weights or germinal centers; settings: mice, po daily for 13 weeks; cited from earlier work
[14] = oral 3 mg/kg dexamethasone base, 48 hours

Compound: C[C@H]1C[C@H]2[C@@H]3CCC4=CC(=O)C=C[C@]4(C)[C@@]3(F)[C@@H](O)C[C@]2(C)[C@@]1(O)C(=O)CO [betamethasone]
- effect on RBC (RBC): reduces RBC

Compound: C[C@@H]1C[C@H]2[C@@H]3CCC4=CC(=O)C=C[C@]4(C)[C@@]3(F)[C@@H](O)C[C@]2(C)[C@@]1(O)C(=O)CO [dexamethasone]
- HED dose from which germinal centers are reduced (germinal centers [1]): ≥ 6 mg/kg
- HED dose from which germinal centers are reduced (germinal centers [1]; listed as Dexamethasone): ≥ 3 mg/kg
- Germinal Center staining intensity in spleen (germinal centers [1]; mice, HED 6 mg/kg): Germinal center reduction is apparent
- Germinal Center staining intensity in spleen (germinal centers [1]; mice, HED 9 and 12 mg/kg): not significantly reduced until HED of 9 and 12 mg/kg doses; also recorded: significantly reduced
- FITC-PNA immunofluorescence (germinal centers) in spleen (germinal centers [1]; mice, IP HED 9.3 mg/kg dexamethasone base, 96 hours before spleen harvest): almost no immunofluorescent signal
- effects of oral dosing compared to IV dosing ([2]; acute high dose): comparable effects
- reduction in CD4+, CD8+, Tregs and B cells population ([2]; high doses, 48 hours after administration): ~98%
- lymphodepletion ([2]; high-dose dexamethasone, naïve mouse and rat models): complete lymphodepletion
- patients who showed lymphocytosis (lymphocytes [3]; 3 mg/kg HED): 50%
- hematopoietic stem cells (CD34+CD38−) (lymphocytes [3]; [14]): spared
- patients who depleted CD3, CD4 and CD8 positive lymphocytes (lymphocytes [3]; [14]): 2 of 4
- patients who depleted NK cells (lymphocytes [3]; [14]): 3 of 4
- patients who depleted Tregs and B lymphocytes (lymphocytes [3]; [14]): 1 of 4
- patients with lymphocytosis response in CD3 and CD4 lymphocytes (lymphocytes [3]; oral 3 mg/kg, 48 hours): 2 of 4
- patients with lymphocytosis response in CD8, B lymphocytes and NK cells (lymphocytes [3]; oral 3 mg/kg, 48 hours): 1 of 4
- patients who responded with lymphodepletion (lymphocytes [3]; oral 3 mg/kg, 48 hours, un-normalized flow cytometry data): 2 of the 4
- dose at which plasma IL-2 and IL-15 cytokine elevations are observed (IL-2, IL-15, IL-6; dexamethasone base, HED, about): ≥ 3 mg/kg
- patients with elevated levels of IL-2 (IL-2, IL-15, IL-6; [14]): 3 of 4
- patients with elevated levels of IL-15 (IL-2, IL-15, IL-6; [14]): 4 of 4
- patients with increased serum IL-2 and/or IL-15 levels (IL-2, IL-15, IL-6; [14]): 100%
- levels of plasma IL-2 and IL-15 cytokines (IL-2, IL-15, IL-6; small number of human osteoarthritis patients, acute high dose): elevates
- sternal BM MSC stem cell number [4]: doubled
- adverse side effects [5]: no adverse side effects were observed
- glucose level ([6]; after acute high dose dexamethasone): not elevated over the normal range
- clinical chemistry levels including cholesterol and total protein ([6]; mice, acute oral HED doses 6-12 mg/kg): do not elevate clinical chemistry levels out of normal range
- dose above which lymphoablation is completely evident (lymphocytes [7]): above 18 mg/kg
- reduction of B lymphocyte numbers (B lymphocytes): greater than 90%
- reduction of memory B cell populations (B lymphocytes): greater than 90%
- CD3+ T lymphocytes ([8]; IP 10 mg/kg (HED 0.81 mg/kg) on day −6, −4, −2, control 3370): 2441 live events
- B lymphocytes (CD3−CD19+ cells) in the peripheral blood ([8]; IP 10 mg/kg (HED 0.81 mg/kg) on day −6, −4, −2, vehicle control 10680): 3733 live events
- reduction of B lymphocytes ([8]; IP 10 mg/kg (HED 0.81 mg/kg) on day −6, −4, −2, vs vehicle, significant): 65%
- CD3+CD4+CD25+FoxP3+ Tregs ([8]; same dosing, control 198): 70 live events
- CD3+CD8 T lymphocytes ([8]; same dosing, control 1318): 1277 live events
- CD3+CD4+ T lymphocytes ([8]; same dosing, control 1779): 902 live events
- marginal zone area (width) in spleen (marginal zone): reduced at all dexamethasone doses
- germinal center area (BCL-6 staining) in spleen (germinal centers [9]): reduced at all dexamethasone doses
- suppression of peripheral blood T and B lymphocytes [10]: 80%
- time at which recovery begins [10]: 12 h
- time to normal levels [10]: ≤ 24 h
- relapse rate (pemphigus): 15%
- lymphodepletion in comparison to total body irradiation (spleen cellularity; HED 0.8 mg/kg on day −6, −4, −2): lymphodepleted equivalently to 5Gy TBI
- reduced spleen cellularity (spleen cellularity; IP 10 mg/kg (HED 0.81 mg/kg) on day −6, −4, −2 before ACT): 99%
- ileac crest bone marrow MSC number (CFU-F per ml) [11]: almost two fold; also recorded: about twice as high
- number of live hematopoietic stem cells (hematopoietic stem cells): did not significantly alter

Compound: C[C@]12C=CC(=O)C=C1CC[C@@H]1[C@@H]2C(=O)C[C@@]2(C)[C@H]1CC[C@]2(O)C(=O)CO [prednisone]
- reduction of B lymphocyte numbers (B lymphocytes): greater than 90%
- reduction of memory B cell populations (B lymphocytes): greater than 90%
- biologic half-life [12]: about 20 hours
- dose above which spleen weights or germinal centers are significantly impacted [13]: over 2.5 mg/kg
